Measured values reported in EP0417840B1, “Antiviral tetrahydroimidazo [1,4]-benzodiazepines” (JANSSEN PHARMACEUTICA N.V., priority 1989, dated 1991).
≈ marks a conversion by molar mass, not a printed value.

What was measured:
[1] = test system: HIV; test: Anti-HIV assay: inhibition of the HIV-induced cytopathic effect in MT-4 cells (MTT); type: cell-based; settings: for EC50: Human immunodeficiency virus 1, MT4, dose achieving 50% protection of HIV-infected MT-4 cells, MTT, 540 nm, read-out: ED₅₀ (50% effective dose); for SI (selectivity index): ratio of CD₅₀ to ED₅₀
Description: (§1) A rapid, sensitive and automated assay procedure was used for the in-vitro evaluation of anti-HIV agents. An […] T4-cell line, MT-4, which was previously shown (Koyanagi et al., Int. J. Cancer, 36, 445-451, 1985) to be highly susceptible to and permissive for HIV infection, served as the target cell line. Inhibition of the HIV-induced cytopathic effect was used as the end point. The viability of both HIV- and mock-infected cells was assessed spectrophotometrically via the in-situ reduction of 3-(4,5-dimethylthiazol-2-yl)-2,5-diphenyltetrazolium bromide (MTT). The 50% cytotoxic dose (CD₅₀ in µg/ml) was defined as the concentration of compound that reduced the absorbance of the mock-infected control sample by 50%. The percent protection achieved by the compound in HIV-infected cells was calculated by the following formula: [formula] whereby (ODT)HIV is the optical density measured with a given concentration of the test compound in HIV-infected cells; (ODC)HIV is the optical density measured for the control untreated HIV-infected cells; (ODC)MOCK is the optical density measured for the control untreated mock-infected cells; all optical density values were determined at 540 nm. The dose achieving 50% protection according to the above formula was defined as the 50% effective dose (ED₅₀ in µg/ml). The ratio of CD₅₀ to ED₅₀ was defined as the selectivity index (SI).

[2] = in vitro; type: cell-based; settings: human, mt-4 cells
Description: as §1

Row | EC50 [1] [µg/mL] | SMILES | SI (selectivity index) [1] | CC50 [2] [µg/mL]
1 | 0.0048 (≈ 0.0159 µM) | CC(C)=CCN1[C@H](C)Cn2c(=S)[nH]c3cccc(c32)[C@H]1C (relative stereo) [Compound 6, trans-4,5,6,7-tetrahydro-5,7-dimethyl-6-(3-methyl-2-butenyl)imidazo[4,5,1-jk][1,4]benzodiazepine-2(1H)-thione] | 4838 | 23 (≈ 76.3 µM)
2 | 0.5 (≈ 1.91 µM) | CCCN1CCn2c(=S)[nH]c3cccc(c32)C1C (stereo not drawn) [Compound 2, 4,5,6,7-tetrahydro-7-methyl-6-propylimidazo[4,5,1-jk] [1,4]benzodiazepin-2(1H)-thione] | 258 | 129 (≈ 494 µM)
3 | 0.24 (≈ 0.796 µM) | CC(C)=CCN1[C@H](C)Cn2c(=S)[nH]c3cccc(c32)[C@@H]1C (relative stereo) [Compound 5, cis-4,5,6,7-tetrahydro-5,7-dimethyl-6-(3-methyl-2-butenyl)imidazo[4,5,1-jk][1,4]benzodiazepine-2(1H)thione] | 96 | 23 (≈ 76.3 µM)
4 | 0.1 (≈ 0.348 µM) | CC(C)=CCN1CCn2c(=S)[nH]c3cccc(c32)C1C (stereo not drawn) [Compound 3] | 1770 | 177 (≈ 616 µM)
